Results on five molecules are retold here after patent publication EP0292365A2, “4-Amino-5,8-quinazolindione derivatives, process for their preparation and pharmaceutical compositions containing them” (CENTRE NATIONAL DE LA RECHERCHE SCIENTIFIQUE, priority 1987, dated 1988).

The structures appear in SMILES notation. Read-outs that look alike come from different tables or passages of the source.

The test system of series [1] is cellules leucémiques L 1210. In words: In vitro cytotoxicity: growth inhibition of L 1210 leukemia cells (Coulter count). It is filed as cell-based, souris. As to conditions: Mus musculus, L1210, 48 h, read-out: CI50 après 48 h de culture. How it is done:
La détermination de la cytotoxicité in vitro sur les cellules leucémiques L 1210 est la méthode utilisée pour sélectionner les molécules potentiellement antitumorales. Le protocole mis en oeuvre est le suivant :
les cellules leucématiques L 1210 adaptées à la culture en suspension stationnaire sont entretenues dans du milieu RPMI 1640 (commercialisé par Seromed) additionné de 20 % de sérum de cheval décomplémenté, L-glutamine (2 mM), pénicilline (200 U/ml), streptomycine (50µg/ml) et cultivées à 37° C dans une atmosphère à 5 % de C02. Les cultures testées par la méthode de BARILE (BARILE M.F. Mycoplasmal contamination of cell culture, in Contamination in Tissue Culture, J. Fogh (ed.) Acad. Press, 132-156, 1973) sont exemptes de contaminations bactériennes et mycoplasmiques.
Pour les expérimentations, les cellules sont ensemencées à la concentration de 0,8.10^5 cellules/ml et cultivées par 2 ml dans des flacons de 15 ml. Les substances à étudier sont dissoutes dans du DMSO (1 % final) dont on a préalablement vérifié l'innocuité. Des quantités croissantes de produit à tester sont ajoutées au temps 0 et des numérations sont faites au compteur COULTER après 24 et 48 heures de culture. Des séries de contrôle sont effectuées avec des quantités de DMSO équivalentes à celles des séries traitées.
Le temps de doublement des cellules témoins est approximativement de 12 heures.
La cytotoxicité est déterminée d'après l'inhibition de croissance des cellules L 1210, calculée par rapport aux témoins correspondants selon la formule : [formula] • T = concentration de cellules non traitées, • t = concentration de cellules traitées.
La concentration de produit qui diminue la croissance cellulaire de 50 % (Clso) est calculée d'après la méthode des régressions linéaires en coordonnées log-probit.
Lorsque la Cl50 est voisine de la micromolarité (égale ou inférieure à 1 µM), il existe une présomption d'activité antitumorale et les essais in vivo indiqués ci-après sont effectués.
A titre d'exemple, la CI50 mesurée 48 heures après traitement des cellules par les composés de l'invention testés est la suivante : […]

Series [2] is described as follows: Determination of toxicity (DLo), single intraperitoneal dose. Type of series: in vivo. The following applies: voie intrapéritonéale, dose unique, souris Swiss, suivies pendant un mois. The text has this: Ils sont tous administrés, par voie intrapéritonéale (ip), à des souris Swiss de 22 ± 2 g, à doses uniques exprimées en mg/kg de poids corporel. Les animaux sont suivis pendant un mois. La mortalité et les signes de toxicité sont relevés. On détermine ainsi la DLoqui sera la dose maximale utilisée pour la détermination de l'activité antitumorale.

Series [3] can be described thus: Solubility in water (statement). It is filed as physicochemical.
The test system of the next series is Leucémie P388. It is filed as in vivo, souris DBA/2. As to conditions: for Animaux survivants/ animaux traités / T/C / ΔP (J5-J1): P388, greffe ip (10^6 cel), ip J1, suspension dans le Klucel; for activité antitumorale comparée: compared with the quinazolinedione of J. Med. Chem. 1983, 26, 1715-1719. The text has this:
Afin de tester l'activité antitumorale des composés décrits plus haut, on a utilisé les leucémies murines P388 et L1210, ainsi que le mélanome murin B16. La leucémie P388 est considère comme très sensible et permet une première sélection. D'autre part, une substance ayant une grande activité sur la leucémie L1210 a une grande chance d'être active en clinique humaine (J.M. Venditti; Relevance of transplantable animal tumor systems to the Selection of new agents for clinical trial in pharmacological basis of cancer chemotherapy. The University of Texas ed. Williams and Wilkins, publ. 1975, Baltimore USA).
Cette étude a été réalisée sur 1, 2 ou 3 tumeurs murines expérimentales selon le schéma suivant :
Les produits en solution dans l'eau ou en suspension dans du Klucel sont administrés par voie intrapéritonéale 24 heures après la greffe des cellules tumorales (10 animaux par série), soit en injection unique (J1), soit pendant 9 jours consécutifs (Ji-9). Les morts sont relevés chaque jour à la même heure. La comparaison du temps médian de survie des souris témoins (C) et des souris traitées (T) permet d'apprécier l'activité antitumorale du produit. On adopte comme critère d'activité minimale la valeur de T/C supérieure ou égale à 125 % conformément aux critères établis par GERAN et par l'O.M.S. (Réf. GERAN R.I., GREENBERG N.H., MACDONALD M.M., SCHUMACHER A.M. and ABBOTT B.J. Protocols for screening chemical agents and natural products against animal tumors and other biological systems. Cancer Chemother. Rep. Part 3, 3, 1-103 (1972)).
Lorsque le composé est actif sur plusieurs tumeurs, son administration par d'autres voies que la voie intrapéritonéale (i.p.) est envisagée : orale (p.o) et intraveineuse (i.v). Les résultats des essais effectués à l'aide du composé 63 sont rassemblés dans le tableau IV ci-après.
Les résultats des essais effectués à l'aide des composés de l'invention n° 57 et 59 sont rassemblés dans le tableau IV Bis ci-après.
Dans les tableaux IV et IV Bis, P représentent la variation de poids entre J1 et J5 des animaux traités; lorsque P est supérieure à environ 4 g, cela signifie que la dose à laquelle le composé a été testé est toxique.

For another series, the system named is leucémie L1210. The following applies: J. Med. Chem. 1983, 26, pp. 1715-1719; cited from earlier work.
The subject of a further series is mélanocarcinome B16. The following applies: J. Med. Chem. 1983, 26, pp. 1715-1719; cited from earlier work.
The test system of a further series is cellules L1210. As to conditions: J. Med. Chem. 1983, 26, pp. 1715-1719; cited from earlier work.
The conditions of series [4]: J. Med. Chem. 1983, 26, pp. 1715-1719; cited from earlier work.
Another series has as its system leucémie murine P388. The following applies: J. Med. Chem. 1983, 26, pp. 1715-1719; cited from earlier work.
In a further series the test system is sarcome 180. As to conditions: J. Med. Chem. 1983, 26, pp. 1715-1719; cited from earlier work.

On to `O=C1C(N2CC2)=C(N2CC2)C(=O)c2c(NCCCCCCCNc3ncnc4c3C(=O)C(N3CC3)=C(N3CC3)C4=O)ncnc21` [compound 54], for which the IC50 in series [1] was found to be 3.7 nM.

`O=C1C(N2CC2)=C(N2CC2)C(=O)c2c(NCCOCCOCCNc3ncnc4c3C(=O)C(N3CC3)=C(N3CC3)C4=O)ncnc21` [compound 59]: in [2], the DLo is given as approximately 10 mg/kg. In addition, the IC50 in series [1] was found to be 18 nM. Further, the “solubilité dans l'eau” value in series [3] was “insolubles dans l'eau”. For the same molecule, the “Animaux survivants/ animaux traités” value with Leucémie P388 (5 mg/kg) is on record as 10/10; in the series on Leucémie P388 (10 mg/kg), 10/10; in the series with Leucémie P388 (15 mg/kg), 07/10; in the series with Leucémie P388 (2,5 mg/kg) it was 10/10. Further, the T/C (usually the ratio of treated to control) in the series on Leucémie P388 (5 mg/kg) worked out at 133%; with Leucémie P388 (10 mg/kg), 135%; with Leucémie P388 (15 mg/kg) it was 145%; with Leucémie P388 (2,5 mg/kg) it was 115%. For the same molecule, the “ΔP (J5-J1)” value is given as -1,1 g in the series on Leucémie P388 (5 mg/kg), -1,8 g in the series on Leucémie P388 (10 mg/kg), -4,1 g with Leucémie P388 (15 mg/kg) and -0,5 g with Leucémie P388 (2,5 mg/kg). In the series with Leucémie P388, the “activité antitumorale comparée” value is listed as “nettement plus actifs”.

`COC1=CC(=O)c2ncnc(NCCCN3CCC(C4CCN(CCCNc5ncnc6c5C(=O)C(OC)=CC6=O)CC4)CC3)c2C1=O` [compound 70]: in series [1] (L 1210 cells, 48 heures après traitement), the IC50 came out at 1300 nM.

As for `CN(CCCNc1ncnc2c1C(=O)C(N1CC1)=C(N1CC1)C2=O)CCCNc1ncnc2c1C(=O)C(N1CC1)=C(N1CC1)C2=O` [compound 57], the DLo in series [2] is reported as ~2,5 mg/kg. For the same molecule, the IC50 in series [1] came out at 4.8 nM. In addition, the “solubilité dans l'eau” value in [3] is reported as “insolubles dans l'eau”. Further, in the series on Leucémie P388 (5 mg/kg), the “Animaux survivants/ animaux traités” value is on record as 10/10, the T/C is given as 168% and the “ΔP (J5-J1)” value was -4,2 g. For the same molecule, in the series with Leucémie P388 (1,25 mg/kg), the “Animaux survivants/ animaux traités” value is 06/06, the T/C worked out at 137% and the “ΔP (J5-J1)” value is recorded as -1,0 g. Moreover, in the series with Leucémie P388 (2,5 mg/kg), the “Animaux survivants/ animaux traités” value is given as 10/10, the T/C came out at 150% and the “ΔP (J5-J1)” value is listed as -1,8 g. The “activité antitumorale comparée” value in the series on Leucémie P388 is recorded as “nettement plus actifs”.

Turning to `O=C1C(N2CC2)=C(N2CC2)C(=O)c2ncncc21` [bis(aziridinyl-1)-6,7 quinazolinedione-5,8], in the series on leucémie L1210, the “activité antitumorale in vivo sur la leucémie L1210” value is “ne présente pas d'activité antitumorale significative”. Also, the “activité in vivo sur le mélanocarcinome B16” value in the series on mélanocarcinome B16 was “très faible activité”. For the same molecule, the “cytotoxicité in vitro sur les cellules L1210” value with cellules L1210 is recorded as “cytotoxique”. Also, the “activité par voie orale” value in series [4] was “n'est pas actif”. For the same molecule, the “activité antitumorale in vivo sur la leucémie murine P388” value with leucémie murine P388 is listed as “une certaine activité antitumorale”. The “activité antitumorale in vivo sur le sarcome 180” value with sarcome 180 is “ne présente pas d'activité antitumorale significative”.
